Measurements from patent publication US20030166005A1, “Test system for determining the activity of cyclo-nucleotide-dependent protein kinases and vasp phosphatases” (priority 2000, published 2003).

How the values were obtained:
cGK [1] = molecular target: T1, cGK (Homo sapiens, UniProt Q13976); assay: biochemical
T1 sequence (Q13976 1-671): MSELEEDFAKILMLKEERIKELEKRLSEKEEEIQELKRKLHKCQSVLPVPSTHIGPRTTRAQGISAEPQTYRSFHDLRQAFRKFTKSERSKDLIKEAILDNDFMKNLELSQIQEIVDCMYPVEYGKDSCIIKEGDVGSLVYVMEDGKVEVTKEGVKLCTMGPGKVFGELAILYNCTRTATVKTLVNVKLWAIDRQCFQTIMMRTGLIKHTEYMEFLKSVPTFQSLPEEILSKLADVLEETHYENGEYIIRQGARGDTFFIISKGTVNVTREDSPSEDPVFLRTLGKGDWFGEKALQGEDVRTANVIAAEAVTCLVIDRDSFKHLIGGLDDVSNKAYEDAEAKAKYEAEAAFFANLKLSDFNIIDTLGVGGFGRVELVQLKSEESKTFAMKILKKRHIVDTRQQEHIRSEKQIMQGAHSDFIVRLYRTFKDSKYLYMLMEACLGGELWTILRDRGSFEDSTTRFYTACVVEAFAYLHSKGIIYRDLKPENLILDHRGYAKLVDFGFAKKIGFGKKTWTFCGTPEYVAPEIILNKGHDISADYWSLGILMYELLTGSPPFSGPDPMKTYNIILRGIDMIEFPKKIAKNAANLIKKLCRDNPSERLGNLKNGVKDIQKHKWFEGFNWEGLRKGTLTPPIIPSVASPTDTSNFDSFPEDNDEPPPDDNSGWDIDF
Description: Instead of carrying out a kinase reaction for the purpose of establishing and optimizing the detection system, a synthetic phosphopeptide (phosphorylated version of the VASP substrate peptide) was used as the “reaction product” and was quantified using a detection mix. In order to ascertain the linear measurement range, different mixtures of unphosphorylated peptide and phosphopeptide were prepared. When so doing, the total concentration of peptide was kept constant at 500 nmol/l. 50 μl of these mixtures were added to the wells of a 96-well microtest plate and in each case treated with 200 μl of a detection mix which contained the following reagents diluted in PBS:
The time-resolved FRET signal, when exciting the europium fluorescence at 340 nm and measuring the emission of the APC fluorescence at 660 nm, was measured, after incubating at 20° C. for 1 hour, using a PerkinElmer Wallac fluorescence-measuring instrument (Victor^2).
After the tubes had been preincubated at 30° C. for 5 minutes, the kinase reaction was started with 50 μmol of ATP/l, with subsequent incubation being at 30° C. All the above-mentioned concentrations are to be understood as meaning final concentrations in a volume of 500 μl. […] The phosphorylated substrate peptide was detected, as described in Example 1, in the wells of a 384-well microtest plate. […]

cGK [2] = molecular target: T1, cGK; assay: Influence of DMSO on the enzyme activity in the test system; format: biochemical; conditions: for Enzyme activity in cps/min: incubation period 10 min
Description: Most substances which are tested in an HTS are preferably dissolved in DMSO. However, many enzymes or test systems are very sensitive to DMSO. In order to determine the influence of DMSO on the test system according to the invention, phosphorylation kinetics, as described in Example 2 (cf. FIG. 2), were carried out in the presence of 0, 5, 10, 15 and 20% DMSO.

| EC50 (cGK [1]) | Enzyme activity in cps/min (cGK [2]; 5 percent by volume of DMSO) | Enzyme activity in cps/min (cGK [2]; 10 percent by volume of DMSO) | Enzyme activity in cps/min (cGK [2]; 15 percent by volume of DMSO) | Enzyme activity in cps/min (cGK [2]; 20 percent by volume of DMSO) | influence on the reaction (cGK [2]; up to 20 percent by volume of DMSO) | SMILES |
| --- | --- | --- | --- | --- | --- | --- |
| 100 nM |  |  |  |  |  | Nc1nc(=O)c2nc(Sc3ccc(Cl)cc3)n([C@@H]3O[C@@H]4COP(=O)(O)O[C@H]4[C@H]3O)c2[nH]1 [8-pCPT-cGMP] |
|  | 2282 cps/min | 2253 cps/min | 2218 cps/min | 1988 cps/min | no significant influence | C[S+](C)[O-] [DMSO, dimethyl sulfoxide] |
